How the values were obtained:
[1] = system: CC10-rtTA-VEGF165 transgenic mice; test: VEGF-induced pulmonary hemorrhage in BAL fluids; format: in vivo, mouse; conditions: Tg+ mice, pretreatment, vs vehicle
Method: The CC10-rtTA-VEGF165 transgenic mice used in this study were generated and used as described previously (Lee et al., 2004, Nature Medicine 10:1095-103), which reference is incorporated herein in its entirety. These animals were housed under barrier conditions in the animal facility at Yale University School of Medicine. In these experiments 6-8 week old transgenic (Tg+) animals and their transgene negative littermate controls (Tg−) were randomized to receive water with doxycycline (dox) (0.5 mg/ml) or normal water. Two weeks later they were sacrificed and the VEGF-induced phenotype was evaluated as described below (Lee et al., 2004, Nature Medicine 10:1095-103). […]
Mice were sacrificed using intraperitoneal ketamine/xylazine injection and the trachea was cannulated and perfused with two 0.9 nil aliquots of cold saline. The cellular contents and BAL fluid were separated by centrifugation, the BAL cell number was quantitated and cell differential was assessed. […]
The lungs were removed en bloc as described elsewhere herein, inflated at 25 cm pressure with PBS containing 0.5% low melting point agarose gel, fixed in Streck solution (Streck Laboratories, La Vista, Nebr.), embedded in paraffin, sectioned and stained. […] Pulmonary hemorrhage was evaluated by quantitating BAL red blood cell number with a Coulter counter (Beckman Coulter).

[2] = system: CC10-rtTA-VEGF165 transgenic mice; test: VEGF-induced mucus metaplasia (PAS staining, BAL MUC5AC); format: in vivo, mouse; conditions: Tg+ mice, pretreatment, vs vehicle
Method: (§1) To define the effects of Poly(I:C) a number of protocols were employed. In most experiments, a pretreatment-2 week protocol was employed. In these experiments, WT and Tg+ mice were treated with Poly(I:C) (30 μg in 50 lambda unless otherwise indicated; Amersham Biosciences, N.J.) or vehicle control via nasal aspiration and transgene activation was accomplished via the administration of dox (0.5 mg/ml) in the animal's drinking water 24 hours later. The Poly(I:C) was administered every other day and the dox was administered continuously for up to 2 weeks.
(§2) Lastly, in selected experiments post-transgene activation protocols were employed. In these experiments dox was administered for 2 days or 2 weeks. The Poly(I:C) was then administered via intranasal aspiration every other day for 2 weeks as disclosed elsewhere herein. In selected pre-treatment and post-transgene activation experiments, unmethylated CpG (CpG-B) (Keck Center, Yale University) was also employed at similar doses. At the end of these intervals, assessments of angiogenesis (anti-CD31 immunohistochemistry), vascular permeability (Evan's blue dye extravasation, wet to dry lung weight measurements, BAL protein concentration), BAL and tissue inflammatory cell infiltration and mucus metaplasia (periodic acid-Schiff (PAS) staining, MUC5AC immunoblotting) were undertaken. In all cases experiments were designed to compare Tg− and Tg+ mice on normal water and Tg− and Tg+ mice on dox water.
The lungs were removed en bloc as described elsewhere herein, inflated at 25 cm pressure with PBS containing 0.5% low melting point agarose gel, fixed in Streck solution (Streck Laboratories, La Vista, Nebr.), embedded in paraffin, sectioned and stained. Hematoxylin and eosin and PAS stains were performed in the Research Histology Laboratory of the Department of Pathology at the Yale University School of Medicine. Pulmonary hemorrhage was evaluated by quantitating BAL red blood cell number with a Coulter counter (Beckman Coulter).
The levels of MUC5AC, the major airway mucin in BAL fluids, were assessed as previously described (Lee et al., 2008, Am J Respir Cell Mol Biol 39:739-746). In these evaluations, 0.1 ml of BAL fluid was slot blotted onto nitrocellulose membranes using a Minifold II slot blot apparatus (Schleicher & Schuell). After air-drying, the membrane was blocked with 5% skim milk, washed three times and incubated overnight at 4° C. with a monoclonal antibody against Mucin-5AC (45M1; NeoMarkers, Union City, Calif.). After washing, the membranes were incubated for 1 hour at room temperature with horseradish peroxidase-conjugated anti-mouse immunoglobulin (Ig)-G (Pierce). Immunoreactive mucins were detected using a chemiluminescent procedure (ECL Plus Western blotting detection system, Amersham Biosciences) according to instructions from the manufacturer.

[3] = system: CC10-rtTA-VEGF165 transgenic mice; test: BAL inflammatory cell recovery, VEGF-induced inflammation; format: in vivo, mouse; conditions: for Total cells (×10^4): VEGF-induced tissue responses, TLR agonist administration, PBS control 50
Method: (§3) The CC10-rtTA-VEGF165 transgenic mice used in this study were generated and used as described previously (Lee et al., 2004, Nature Medicine 10:1095-103), which reference is incorporated herein in its entirety. These animals were housed under barrier conditions in the animal facility at Yale University School of Medicine. In these experiments 6-8 week old transgenic (Tg+) animals and their transgene negative littermate controls (Tg−) were randomized to receive water with doxycycline (dox) (0.5 mg/ml) or normal water. Two weeks later they were sacrificed and the VEGF-induced phenotype was evaluated as described below (Lee et al., 2004, Nature Medicine 10:1095-103).
(§4) To define the effects of these agents on the tissue responses induced by VEGF, two experimental procedures were used. In the first, a pretreatment protocol was used. In these experiments the noted innate immunity agonist ([…] unless otherwise indicated) or its vehicle control (PBS) were administered intranasally and aspirated into the lungs of randomized Tg+ and Tg− mice starting one day before the Dox water treatment. The doses were administered to the mice every other day during the 2 week doxyxycline (dox) treatment interval.
(§5) To determine if the innate immunity agonists altered established VEGF-induced tissue responses, a “post treatment” protocol was used in selected experiments. In these experiments the innate immunity agonist was administered 2 days or 14 days after the doxycycline and VEGF-induced responses were evaluated 2 weeks later.
as §1, §2
Mice were sacrificed using intraperitoneal ketamine/xylazine injection and the trachea was cannulated and perfused with two 0.9 nil aliquots of cold saline. The cellular contents and BAL fluid were separated by centrifugation, the BAL cell number was quantitated and cell differential was assessed. The BAL fluid was stored in aliquots at −80° C.

[4] = system: CC10-rtTA-VEGF165 transgenic mice; test: VEGF-induced angiogenesis, anti-CD31 immunohistochemistry and vessel area density; format: in vivo, mouse; conditions: for Vascularity (%): VEGF-induced tissue responses, TLR agonist administration, PBS control 43
Method: as §3, §4, §5, §1
In selected experiments a pretreatment protocol and shorter treatment interval was employed. In these experiments, WT and Tg+ mice were treated with Poly(I:C) (30 μg/mouse/dose in 50 μl) or vehicle control via nasal aspiration and transgene activation was accomplished with dox 24 hours later. The animals were then randomized to not receive or receive one additional dose of Poly(I:C) 24 hours later and dox was administered continuously during this 2 week interval.
as §2

[5] = system: human patients; conditions: cited from earlier work

Row | Molecule | VEGF-induced bleeding / hemorrhage in BAL fluids [1] | VEGF-induced mucus metaplasia (PAS stains, BAL MUC5AC accumulation) [2] | total recovery of inflammatory cells during BAL / VEGF-induced inflammation ([3]; Tg+ mice, pretreatment, vs vehicle) | Total cells (×10^4) [3] | VEGF-induced angiogenesis (vascular density, appearance, sprouting) ([4]; Tg+ mice, pretreatment starting 1 day before dox, vs vehicle) | Vascularity (%) [4] [%] | toxicity, lower dose ([5]; 10 to 50 mcg/kg) | toxicity and efficacy in human patients, high doses ([5]; 200-300 mcg/kg IV)
1 | CCNCc1nc2c(N)nc3ccccc3c2n1CC(C)(C)O [Gardiquimod] | decreased | decreased | decreased | 29 ×10^4 | decreased | 32.4 |  | 
2 | Lipopolysaccharide [LPS] |  |  |  | 156 ×10^4 |  | 32.2 |  | 
3 | poly-ICLC |  |  |  |  |  |  | little or no toxicity | toxic and largely ineffectual
